Source: patent US4477463A, “Antiinflammatory and/or analgesic 1-alkyl-4,5-diaryl-2-fluoroalkyl-1H-pyrroles” (E. I. Du Pont de Nemours and Company, priority 1982, dated 1984)
Like-named read-outs stand apart in the source and are kept apart here.

How the values were obtained:
[1] = system: phenylquinone-induced writhing in mice; experiment: Phenylquinone Writhing Test; assay type: in vivo, female white mice; settings: Mus musculus, read-out: Phenylquinone Writhing (PQW) ED50
Procedure: Phenylquinone Writhing Test
A test compound suspended in 1% methylcellulose was given orally to fasted (17-21 hours) female white mice, 5-20 animals per double blind test. Aqueous (0.01% phenyl-p-benzoquinone) phenylquinone, 0.20 ml per mouse, was injected intraperitoneally 6 minutes before observations were begun.

[2] = system: adjuvant-induced arthritis in rats; experiment: Established Adjuvant-Induced Arthritis in Rats; assay type: in vivo, Charles River Lewis male rats; settings: for ED50: Rattus norvegicus, read-out: Adjuvant Arthritic ED50; for percent reduction in paw volume: at 9 mg/kg
[3] = effective analgesic dose for 50% of the mice, oral, 0.01% phenylquinone 0.20 ml i.p.
[4] = ED50% decrease from control paw volume (uninjected, left hind paw), oral, daily for 7 days, read one day after last dose
[5] = oral, daily for 7 days, read one day after last dose

Row | Compound | ED50 ([1]; po) | ED50 ([2]; po) | ED50 [1, 3] | ED50 [2, 4] | percent reduction in paw volume [2, 5]
1 | CC(=O)Oc1ccccc1C(=O)O [Aspirin, reference compound] | 135 mg/kg | 305 mg/kg |  |  | 
2 | COc1ccc(-c2cc(C(F)(F)F)n(C)c2-c2ccc(OC)cc2)cc1 [Example 1, 4,5-Bis(4-methoxyphenyl)-1-methyl-2-trifluoromethyl-1H-pyrrole] |  |  | 16 mg/kg | 1.25 mg/kg | 
3 | COc1ccc(-c2cc(C(F)(F)C(F)(F)F)n(C)c2-c2ccc(OC)cc2)cc1 [Example 2, 4,5-bis(4-methoxyphenyl)-1-methyl-2-pentafluoroethyl-1H-pyrrole] |  |  | 1.8 mg/kg |  | 32%
4 | CCn1c(C(F)(F)F)cc(-c2ccc(OC)cc2)c1-c1ccc(OC)cc1 [Example 3] |  |  | 47 mg/kg | 18 mg/kg | 
5 | Cn1c(C(F)(F)F)cc(-c2ccc(Cl)cc2)c1-c1ccc(Cl)cc1 [Example 4] |  |  |  |  | 29%
6 | Cc1ccc(-c2cc(C(F)(F)F)n(C)c2-c2ccc(C)cc2)cc1 [Example 5] |  |  | 18 mg/kg |  | 28%
7 | CSc1ccc(-c2c(-c3ccc(F)cc3)cc(C(F)(F)F)n2C)cc1 [Example 6, 4-(4-fluorophenyl)-1-methyl-5-(4-methylthiophenyl)-2-trifluoromethyl-1H-pyrrole] |  |  | 16 mg/kg | 1.8 mg/kg | 
8 | Cn1c(C(F)(F)F)cc(-c2ccc(F)cc2)c1-c1ccc(S(C)(=O)=O)cc1 [Example 7, 4-(4-fluorophenyl)-1-methyl-5-(4-methylsulfonylphenyl)-2-trifluoromethyl-1H-pyrrole] |  |  |  | 3.5 mg/kg | 
9 | CSc1ccc(-c2cc(C(F)(F)F)n(C)c2-c2ccc(SC)cc2)cc1 [Example 8, 1-methyl-4,5-bis(4-methylthiophenyl)-2-trifluoromethyl-1H-pyrrole] |  |  | > 108 mg/kg | 1.8 mg/kg | 
10 | CC(C)Cc1ccc(C(C)C(=O)O)cc1 (stereo not shown) [Ibuprofen, reference compound] |  |  | 10 mg/kg | 100 mg/kg | 
11 | COc1ccc2c(c1)c(CC(=O)O)c(C)n2C(=O)c1ccc(Cl)cc1 [Indomethacin, reference compound] | 0.35 mg/kg | 0.3 mg/kg |  |  | 
12 | CCCCC1C(=O)N(c2ccccc2)N(c2ccccc2)C1=O [Phenylbutazone, reference compound] |  |  | 80 mg/kg | 10 mg/kg | 
